Experimental data: the supplement of paper PMC10307832

What was measured:
Assay in all cases: relative viability (nuclei count vs DMSO), 5 days (fraction); higher = more cells survive
Ricolinostat + Olaparib = compound: O=C(CCCCCCNC(=O)c1cnc(N(c2ccccc2)c2ccccc2)nc1)NO [Ricolinostat] + O=C(c1cc(Cc2n[nH]c(=O)c3ccccc23)ccc1F)N1CCN(C(=O)C2CC2)CC1 [Olaparib] (partner 8 µM)
Summary of the method: (§1)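 The day after seeding in 1536-well plates, lung cancer cell lines were treated by pin tool with a single drug, or with a fixed anchor-drug dose together with five library-drug doses (not always all listed) in √10 steps. After 5 days, a combined fix-and-stain solution (final 0.05% Triton X-100, 1% formaldehyde, 1 ug/ml Hoechst) was added. Nuclei counted on 4× images gave relative viability as treated counts over vehicle counts, reported as the median of duplicate plates.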

[1] = compound: C1=CC=C(C(=C1)C2=CC=C(C=C2)C3=CSC4=C3C(=C(C(=O)N4)C#N)O)O + C[C@@H](Oc1cc(-c2cnn(C3CCNCC3)c2)cnc1N)c1c(Cl)ccc(F)c1Cl [Crizotinib] (partner 1 µM)
Summary of the method: as §1

[2] = compound: O=C(CCCCCCNC(=O)c1cnc(N(c2ccccc2)c2ccccc2)nc1)NO [Ricolinostat] + CC1(C)CCC(c2ccc(Cl)cc2)=C(CN2CCN(c3ccc(C(=O)NS(=O)(=O)c4ccc(N[C@H](CCN5CCOCC5)CSc5ccccc5)c(S(=O)(=O)C(F)(F)F)c4)cc3)CC2)C1 [Navitoclax] (partner 0.5 µM)
Summary of the method: as §1

[3] = compound: C1=CC=C(C(=C1)C2=CC=C(C=C2)C3=CSC4=C3C(=C(C(=O)N4)C#N)O)O + O=C(CCCCCCC(=O)Nc1ccccc1)NO [Vorinostat] (partner 1 µM)
Summary of the method: as §1

| Cell Line | relative viability (Ricolinostat + Olaparib; first compound 0.08 µM) | relative viability (Ricolinostat + Olaparib; first compound 0.253 µM) | relative viability (Ricolinostat + Olaparib; first compound 0.8 µM) | relative viability (Ricolinostat + Olaparib; first compound 2.53 µM) | relative viability ([1]; first compound 0.08 µM) | relative viability ([1]; first compound 0.253 µM) | relative viability ([1]; first compound 0.8 µM) | relative viability ([1]; first compound 2.53 µM) | relative viability ([1]; first compound 8 µM) | relative viability ([2]; first compound 0.08 µM) | relative viability ([2]; first compound 0.253 µM) | relative viability ([2]; first compound 0.8 µM) | relative viability ([2]; first compound 2.53 µM) | relative viability ([3]; first compound 0.08 µM) | relative viability ([3]; first compound 0.8 µM) | relative viability ([3]; first compound 2.53 µM) | relative viability ([3]; first compound 8 µM) | relative viability ([3]; first compound 0.253 µM) |
| --- | --- | --- | --- | --- | --- | --- | --- | --- | --- | --- | --- | --- | --- | --- | --- | --- | --- | --- |
| NCI-H2405 | 0.705 | 0.858 | 0.814 | 0.937 | 0.787 | 0.844 | 0.855 | 0.812 | 0.787 | 0.577 | 0.935 | 0.975 | 0.77 | 0.983 | 0.956 | 0.955 | 0.999 |  |
| NCI-H1915 | 0.255 | 0.237 | 0.248 | 0.201 | 0.806 | 1.05 | 0.828 | 0.937 | 0.65 | 0.797 | 0.746 | 0.778 | 0.712 | 0.455 | 0.449 | 0.552 | 0.46 | 0.468 |
| NCI-H2228 | 0.647 | 0.548 | 0.476 | 0.45 | 0.385 | 0.505 | 0.495 | 0.33 | 0.392 | 0.951 | 0.987 | 0.8 | 0.693 | 0.555 | 0.648 | 0.524 | 0.36 | 0.557 |
| NCI-H322M | 0.664 | 0.879 | 0.807 | 0.907 | 0.708 | 0.535 | 0.882 | 0.99 | 0.868 |  | 1.2 | 1.27 | 1.08 | 0.841 | 0.817 | 0.865 | 0.855 | 0.756 |
| LK-2 | 0.623 | 0.687 | 0.691 | 0.575 |  |  | 0.236 | 0.21 | 0.296 | 0.841 | 0.898 | 0.811 | 0.842 | 0.22 | 0.28 | 0.321 | 0.255 | 0.26 |
| LXF-289 | 1.04 | 1.12 | 1.04 | 1.01 | 0.779 | 0.852 | 0.789 | 0.845 | 0.826 | 0.904 | 0.927 | 0.914 | 0.878 | 0.902 | 0.833 | 0.82 | 0.907 | 0.831 |
| PC-3 [JPC-3] | 0.865 | 1.06 | 1.07 | 0.971 | 0.986 | 1.12 | 0.915 | 1 | 0.891 | 0.778 | 0.77 | 0.739 | 0.574 | 0.809 | 0.758 | 0.658 | 0.662 | 0.909 |
| BEN | 1.05 | 0.995 | 0.999 | 1.02 | 0.771 | 0.948 | 0.886 | 1.02 | 0.776 | 0.0553 | 0.084 | 0.0569 | 0.0652 | 0.567 | 0.59 | 0.531 | 0.573 | 0.678 |
| NCI-H1355 | 0.647 | 0.723 | 0.707 | 0.688 | 1.2 | 1.16 | 0.991 | 1.03 | 0.841 |  | 0.916 | 0.887 | 0.747 | 0.627 | 0.626 | 0.578 | 0.592 | 0.658 |
